Experimental data reported in PubChem BioAssay (NCI).
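GI50 = concentration required for 50% inhibition of growth. The concentration for full growth arrest is given as TGI.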

Assays:
Test in all cases: NCI anticancer screen, dose series, 384-well format
[1] = tested on: MOLT-4 leukemia
[2] = tested on: RXF 393 renal
[3] = tested on: SW-620 colon
[4] = tested on: HCC-2998 colon
[5] = tested on: SF-295 CNS
[6] = tested on: LOX IMVI melanoma
[7] = tested on: MALME-3M melanoma
[8] = tested on: KM12 colon
[9] = tested on: SK-MEL-28 melanoma
[10] = tested on: UO-31 renal
[11] = tested on: OVCAR-5 ovarian
[12] = tested on: RPMI-8226 leukemia
[13] = tested on: SNB-75 CNS
[14] = tested on: COLO 205 colon
[15] = tested on: IGROV1 ovarian
[16] = tested on: BT-549 breast
[17] = tested on: PC-3 prostate
[18] = tested on: NCI-H460 NSCLC
[19] = tested on: SNB-19 CNS
[20] = tested on: MDA-MB-231 breast
[21] = tested on: UACC-257 melanoma
[22] = tested on: HT29 colon
[23] = tested on: SF-539 CNS
[24] = tested on: K-562 leukemia
[25] = tested on: HL-60(TB) leukemia
[26] = tested on: MDA-MB-468 breast
[27] = tested on: NCI-H23 lung
[28] = tested on: HS 578T breast
[29] = tested on: CCRF-CEM leukemia
[30] = tested on: NCI-H226 lung
[31] = tested on: TK-10 renal
[32] = tested on: M14 melanoma
[33] = tested on: NCI-H322M lung
[34] = tested on: SN12C renal
[35] = tested on: HCT-15 colon
[36] = tested on: SR leukemia
[37] = tested on: T-47D breast
[38] = tested on: NCI/ADR-RES ovarian
[39] = tested on: NCI-H522 lung
[40] = tested on: ACHN renal
[41] = tested on: SF-268 CNS
[42] = tested on: HOP-62 NSCLC
[43] = tested on: SK-OV-3 ovarian
[44] = tested on: EKVX NSCLC
[45] = tested on: SK-MEL-5 melanoma
[46] = tested on: A498 renal
[47] = tested on: OVCAR-8 ovarian
[48] = tested on: MCF7 breast
[49] = tested on: 786-0 renal
[50] = tested on: A549 NSCLC
[51] = tested on: CAKI-1 renal
[52] = tested on: OVCAR-4 ovarian
[53] = tested on: HOP-92 NSCLC
[54] = tested on: MDA-MB-435 melanoma
[55] = tested on: UACC-62 melanoma
[56] = tested on: OVCAR-3 ovarian
[57] = tested on: DU-145 prostate

Cc1c(C#N)cccc1[C@@H](C)Nc1nnc(C)c2cnc(N3CCOCC3)cc12
GI50 [1]: 12.8 µM
TGI [1]: 25.5 µM
GI50 [2]: 12 µM
TGI [2]: 24.6 µM
GI50 [3]: 12.6 µM
TGI [3]: 25.4 µM
GI50 [4]: 18.3 µM
TGI [4]: 33.3 µM
GI50 [5]: 14.7 µM
TGI [5]: 28 µM
GI50 [6]: 14 µM
TGI [6]: 27.1 µM
GI50 [7]: 16.6 µM
TGI [7]: 30.6 µM
GI50 [8]: 4.85 µM
TGI [8]: 22.2 µM
GI50 [9]: 15.4 µM
TGI [9]: 29.7 µM
GI50 [10]: 13.3 µM
TGI [10]: 26.8 µM
GI50 [11]: 19.1 µM
TGI [11]: 38.9 µM
GI50 [12]: 11.2 µM
TGI [12]: 23.3 µM
GI50 [13]: 16.3 µM
TGI [13]: 33.3 µM
GI50 [14]: 16.5 µM
TGI [14]: 30.5 µM
GI50 [15]: 15.5 µM
TGI [15]: 31.4 µM
GI50 [16]: 14.1 µM
TGI [16]: 27.4 µM
GI50 [17]: 17 µM
TGI [17]: 32.3 µM
GI50 [18]: 17.5 µM
TGI [18]: 32.2 µM
GI50 [19]: 14.3 µM
TGI [19]: 37.5 µM
GI50 [20]: 14.3 µM
TGI [20]: 29.3 µM
GI50 [21]: 19.5 µM
TGI [21]: 33.9 µM
GI50 [22]: 15.7 µM
TGI [22]: 30 µM
GI50 [23]: 15.9 µM
TGI [23]: 29.3 µM
GI50 [24]: 0.163 µM
TGI [24]: 15 µM
GI50 [25]: 21.8 µM
TGI [25]: 36.2 µM
GI50 [26]: 0.39 µM
TGI [26]: 6.37 µM
GI50 [27]: 10.6 µM
TGI [27]: 23.2 µM
GI50 [28]: 13.8 µM
TGI [28]: 26.9 µM
GI50 [29]: 19.5 µM
TGI [29]: 33.7 µM
GI50 [30]: 12.7 µM
TGI [30]: 26.5 µM
GI50 [31]: 15.2 µM
TGI [31]: 38.9 µM
GI50 [32]: 17.2 µM
TGI [32]: 31.1 µM
GI50 [33]: 11.8 µM
TGI [33]: 26.6 µM
GI50 [34]: 1.65 µM
TGI [34]: 19.9 µM
GI50 [35]: 16.1 µM
TGI [35]: 29.9 µM
GI50 [36]: 0.749 µM
TGI [36]: 18.1 µM
GI50 [37]: 11.3 µM
TGI [37]: 24.6 µM
GI50 [38]: 16.6 µM
TGI [38]: 32.1 µM
GI50 [39]: 11.5 µM
TGI [39]: 24 µM
GI50 [40]: 14.5 µM
TGI [40]: 31.6 µM
GI50 [41]: 16 µM
TGI [41]: 30.8 µM
GI50 [42]: 14.2 µM
TGI [42]: 27.9 µM
GI50 [43]: 16.7 µM
TGI [43]: 30.7 µM
GI50 [44]: 11.7 µM
TGI [44]: 26.8 µM
GI50 [45]: 11 µM
TGI [45]: 23 µM
GI50 [46]: 12.1 µM
TGI [46]: 24.6 µM
GI50 [47]: 15 µM
TGI [47]: 29 µM
GI50 [48]: 15.8 µM
TGI [48]: 35.5 µM
GI50 [49]: 13.1 µM
TGI [49]: 26.5 µM
GI50 [50]: 16.7 µM
TGI [50]: 36.3 µM
GI50 [51]: 10.5 µM
TGI [51]: 23 µM
GI50 [52]: 8.18 µM
TGI [52]: 22 µM
GI50 [53]: 0.0569 µM
TGI [53]: 14.3 µM
GI50 [54]: 18.2 µM
TGI [54]: 32.4 µM
GI50 [55]: 16.6 µM
TGI [55]: 30.3 µM
GI50 [56]: 13.4 µM
TGI [56]: 26.4 µM
GI50 [57]: 18.5 µM
TGI [57]: 37.6 µM
